± gives the standard deviation of the averaged measurements.
Assay: TIMS collisional cross section (CCS, N2) of the lipid ion; higher = larger ion cross section
Conditions: ionization mode: positive, one isomer drawn

Compound | TIMS collisional cross section (sample type: HeLa) | TIMS collisional cross section (sample type: Liver) | TIMS collisional cross section (sample type: plasma)
CCCCCCCC/C=C\CCCCCCCC(=O)OC[C@@H](COC(=O)CCCCCCCCCCC)OC(=O)CCCCCCCCCCCCCCC [TG 12:0_16:0_18:1] (ion (formula + adduct): [C49H92O6+NH4] 1+) | 305.7 Å² | – | –
CCCCC/C=C\C/C=C\C/C=C\C/C=C\CCCC(=O)O[C@H](COC(=O)CCCCCCC/C=C\CCCCCCCC)COP(=O)([O-])OCC[N+](C)(C)C [PC 18:1_20:4] (ion (formula + adduct): [C46H82NO8P+H] 1+) | – | – | 294.3 Å²
CCCCCCC/C=C\CCCCCCCC(=O)OC[C@H](COP(=O)([O-])OCC[N+](C)(C)C)OC(=O)CCCCCCC/C=C\CCCCCCCC [PC 17:1_18:1] (ion (formula + adduct): [C43H82NO8P+H] 1+) | 289.2 Å² | – | –
CCCCC/C=C\C/C=C\CCCCCCCC(=O)OC[C@H](COP(=O)(O)OCCN)OC(=O)CCCCCCC/C=C\CCCCCC [PE 18:2@_16:1] (ion (formula + adduct): [C39H72NO8P+H] 1+) | 270 Å² | – | –
CCCCCC/C=C\CCCCCCCC(=O)O[C@H](CO/C=C\CCCCCCCCCCCCCCCC)COP(=O)([O-])OCC[N+](C)(C)C [PC P- 18:0@_16:1] (ion (formula + adduct): [C42H82NO7P+H] 1+) | 288.6 Å² | – | –
CC/C=C\C/C=C\C/C=C\CCCCCCCC(=O)O[C@@H](CO)COC(=O)CCCCCCC/C=C\CCCCCCCC [DG 18:1_18:3_0:0] (ion (formula + adduct): [C39H68O5+NH4] 1+) | 258.6 Å² | – | 258.8 Å²
CCCCC/C=C\C/C=C\CCCCCCCC(=O)O[C@H](CO/C=C\CCCCCCCCCCCCCC)COP(=O)(O)OCCN [PE P- 16:0@_18:2] (ion (formula + adduct): [C39H74NO7P+H] 1+) | 270.7 Å² | 270.5 Å² | 270.6 Å²
CCCCC/C=C\C/C=C\CCCCCCCC(=O)OC[C@@H](COC(=O)CCCCCCCCCCCC)OC(=O)CCCCCCC/C=C\CCCCCC [TG 13:0_16:1_18:2] (ion (formula + adduct): [C50H90O6+NH4] 1+) | – | – | 305.3 Å²
CCCCCCCCCCCCCCCC(=O)OC[C@@H](COC(=O)CCCCCCCCCCC)OC(=O)CCCCCCCCCCCCC [TG 12:0_14:0_16:0] (ion (formula + adduct): [C45H86O6+NH4] 1+) | 294.93 ± 0.32 Å² | 295.2 ± 0.42 Å² | 295.5 Å²
CCCCCCCCCCCCCCCCCCCCCC(=O)O[C@@H](CO)COC(=O)CCCCCCCCCCCCCCC [DG 16:0_22:0_0:0] (ion (formula + adduct): [C41H80O5+NH4] 1+) | 279.1 Å² | – | –
CCCCCCCCCCCCCCCCOC[C@@H](O)COP(=O)([O-])OCC[N+](C)(C)C [LPC O- 16:0] (ion (formula + adduct): [C24H52NO6P+H] 1+) | 230.5 Å² | – | 230.6 Å²
CC/C=C\C/C=C\C/C=C\C/C=C\C/C=C\CCCC(=O)O[C@H](CO/C=C\CCCCCCCCCCCCCCCCCC)COP(=O)([O-])OCC[N+](C)(C)C [PC P- 20:0@_20:5] (ion (formula + adduct): [C48H86NO7P+H] 1+) | 299.9 Å² | – | –
CCCCCCCCCCCCCCCC(=O)OC[C@H](COP(=O)([O-])OCC[N+](C)(C)C)OC(=O)CCCC=O [Oxidized PC 16:0_5:0@] (ion (formula + adduct): [C29H56NO9P+H] 1+) | – | 245.3 Å² | 245.55 ± 0.35 Å²
CCCCC/C=C\C/C=C\CCCCCCCCCC(=O)O[C@H](COC(=O)CCCCCCCCCCCCCCCCC)COP(=O)([O-])OCC[N+](C)(C)C [PC 18:0_20:2@] (ion (formula + adduct): [C46H88NO8P+H] 1+) | – | 297.5 Å² | –
CCCCCCCCCCCCCCCC(=O)OC[C@@H](COC(=O)CCCCCCCCCCCC)OC(=O)CCCCCCCCCCCC [TG 13:0_13:0_16:0] (ion (formula + adduct): [C45H86O6+NH4] 1+) | 295.3 Å² | – | –
CCCCC/C=C\C/C=C\C/C=C\CCCCCCC(=O)O[C@H](CO/C=C\CCCCCCCCCCCCCCCC)COP(=O)(O)OCCN [PE P- 18:0@_20:3] (ion (formula + adduct): [C43H80NO7P+H] 1+) | 283.7 ± 0.71 Å² | – | 282.7 Å²
CCCCC/C=C\C/C=C\CCCCCCCC(=O)O[C@H](COC(=O)CCCCCCC/C=C\CCCCCCC)COP(=O)([O-])OCC[N+](C)(C)C [PC 17:1_18:2] (ion (formula + adduct): [C43H80NO8P+H] 1+) | – | 285.6 Å² | –
CCCCC/C=C\C/C=C\C/C=C\CCCCC(=O)O[C@H](COC(=O)CCCCCCC/C=C\C/C=C\CCCCC)COP(=O)([O-])OCC[N+](C)(C)C [PC 18:2@_18:3] (ion (formula + adduct): [C44H78NO8P+H] 1+) | – | 284.9 Å² | –
CC/C=C\C/C=C\C/C=C\C/C=C\C/C=C\C/C=C\CCC(=O)OC[C@@H](O)COP(=O)(O)OCCN [LPE 22:6] (ion (formula + adduct): [C27H44NO7P+H] 1+) | 218.95 ± 0.071 Å² | 218 Å² | 218.3 ± 0.85 Å²
CCCCC/C=C\C/C=C\CCCCCCCC(=O)OC[C@@H](O)COP(=O)(O)O[C@H]1C(O)C(O)C(O)[C@@H](O)C1O (stereo partly specified) [LPI 18:2_0:0] (ion (formula + adduct): [C27H49O12P+H] 1+) | – | – | 243 Å²
CCCCCCCC/C=C\CCCCCCCC(=O)O[C@H](COC(=O)CCCCCCCCCCCCCCC)COP(=O)([O-])OCC[N+](C)(C)C [PC 16:0_18:1] (ion (formula + adduct): [C42H82NO8P+H] 1+) | 288.37 ± 0.9 Å² | – | 287.7 Å²
CC/C=C\C/C=C\C/C=C\C/C=C\C/C=C\CCCC(=O)OC[C@@H](O)COP(=O)(O)OCCN [LPE 20:5] (ion (formula + adduct): [C25H42NO7P+H] 1+) | – | – | 210.7 Å²
CCCCC/C=C\C/C=C\C/C=C\C/C=C\CCCCCC(=O)O[C@H](CO/C=C\CCCCCCCCCCCCCC)COP(=O)(O)OCCN [PE P- 16:0@_22:4] (ion (formula + adduct): [C43H78NO7P+H] 1+) | – | 281.6 Å² | 281.6 Å²
CCCCCCCCCCCCC/C=C/[C@@H](O)[C@H](CO[C@@H]1O[C@H](CO)[C@@H](O)C(O)C1O)NC(=O)CCCCCCCCCCCCCCCCCCCCC (stereo partly specified) [GlcCer d18:1_22:0@] (ion (formula + adduct): [C46H89NO8+H] 1+) | 298.3 Å² | 298.7 Å² | 298.1 Å²

Next, values leading:

TIMS collisional cross section (sample type: HeLa) | TIMS collisional cross section (sample type: Liver) | TIMS collisional cross section (sample type: plasma) | Compound
318.2 Å² | 317.35 ± 0.35 Å² | 317.4 ± 0.42 Å² | CCCCC/C=C\C/C=C\CCCCCCCC(=O)OC[C@@H](COC(=O)CCCCCCC/C=C\CCCCCC)OC(=O)CCCCCCC/C=C\CCCCCCCC [TG 16:1_18:1_18:2] (ion (formula + adduct): [C55H98O6+NH4] 1+)
– | 346.5 Å² | – | CCCCCCCCCCCCCCCCCCCCCC(=O)OC[C@@H](COC(=O)CCCCCCCCCCCCCCCCC)OC(=O)CCCCCCCCCCCCCCCCCC [TG 18:0_19:0_22:0] (ion (formula + adduct): [C62H120O6+NH4] 1+)
– | 334.2 Å² | – | CCCCCCCC/C=C\CCCCCCCCCCCC(=O)OC[C@@H](COC(=O)CCCCCCCCCCCCCCC)OC(=O)CCCCCCC/C=C\CCCCCCCC [TG 16:0_18:1_22:1] (ion (formula + adduct): [C59H110O6+NH4] 1+)
– | – | 342.3 Å² | CCCCC/C=C\C/C=C\CCCCCCCCCCCC(=O)OC[C@@H](COC(=O)CCCCCCCCCCCCCCC)OC(=O)CCCCCCCCCCCCCCCCCCCC [TG 16:0_21:0_22:2] (ion (formula + adduct): [C62H116O6+NH4] 1+)
311.5 Å² | – | 311.3 ± 0.14 Å² | CCCCCCCCCCCCCCCC(=O)OC[C@@H](COC(=O)CCCCCCCCCCCCCC)OC(=O)CCCCCCCCCCCCCCC [TG 15:0_16:0_16:0] (ion (formula + adduct): [C50H96O6+NH4] 1+)
314.4 Å² | 313.45 ± 0.55 Å² | 313.6 ± 0.44 Å² | CCCCC/C=C\C/C=C\CCCCCCCC(=O)OC[C@@H](COC(=O)CCCCCCCCCCCCCCC)OC(=O)CCCCCCC/C=C\CCCCCC [TG 16:0_16:1_18:2] (ion (formula + adduct): [C53H96O6+NH4] 1+)
297.1 Å² | – | – | CCCCCCCCCCCCCCC(=O)OC[C@@H](COC(=O)CCCCCCCCCCCCC)OC(=O)CCCCCCCCCCCCC [TG 14:0_14:0_15:0] (ion (formula + adduct): [C46H88O6+NH4] 1+)
– | 326.7 Å² | 326.7 Å² | CCCCCCCCCCCCCCCCCC(=O)OC[C@@H](COC(=O)CCCCCCCCCCCCCCC)OC(=O)CCCCCCCCCCCCCCCCC [TG 16:0_18:0_18:0] (ion (formula + adduct): [C55H106O6+NH4] 1+)
314.3 Å² | – | 314.6 ± 0.22 Å² | CCCCCCCCCCCCCCCCC(=O)OC[C@@H](COC(=O)CCCCCCCCCCCCCC)OC(=O)CCCCCCCCCCCCCCC [TG 15:0_16:0_17:0] (ion (formula + adduct): [C51H98O6+NH4] 1+)
– | 324.1 Å² | – | CC/C=C\C/C=C\C/C=C\CCCCCCCC(=O)OC[C@@H](COC(=O)CCCCCCCCCCCCCCCCC)OC(=O)CCCCCCC/C=C\CCCCCCCC [TG 18:0_18:1_18:3] (ion (formula + adduct): [C57H102O6+NH4] 1+)
– | 315.45 ± 0.49 Å² | – | CCCCC/C=C\C/C=C\CCCCCCCC(=O)OC[C@@H](COC(=O)CCCCCCC/C=C\CCCCCC)OC(=O)CCCCCCC/C=C\C/C=C\CCCCC [TG 16:1_18:2_18:2] (ion (formula + adduct): [C55H96O6+NH4] 1+)
